Laboratory results published in patent publication US11485701B2, “Insect repellent compounds and compositions, and methods thereof” (Iowa State University Research Foundation, Inc., priority 2016, dated 2022).
Where a name gives a salt, the structure may show the parent alone. Read-outs that look alike come from different tables or passages of the source.

System: Northern house mosquitoes (Culex pipiens)
Experiment: Short-term spatial repellency, static air repellency chamber
Type: in vivo
Conditions: for pest or weed control at 0.5 %: Culex pipiens; for Short-term repellency at low concentration, in words: filter paper treated with 0.1%
Description: Northern house mosquitoes (Culex pipiens), a primary carrier of West Nile virus in eastern North America, were obtained from an established colony in the Medical Entomology Laboratory in the Department of Entomology at Iowa State University of Science and Technology, Ames Iowa. Mosquito rearing was performed by established protocols that are maintained by the Medical Entomology Laboratory. Repellency bioassays were performed with adult female mosquitoes that emerged 5-7 days previously. […] Mosquitoes, prior to testing, were held at 27° C., 80% relative humidity, and on a 16:8 hr light:dark photoperiod.
Repellency bioassays were performed using a static air repellency chamber, which has been described in various publications by the Pesticide Toxicology Laboratory at Iowa State University of Science and Technology, Ames, Iowa Briefly, a 9-cm×60-cm glass tube was used to monitor the distribution of mosquitoes at 15 min, 30 min, 60 min, 90 min, 120 min, and 150 min after introducing mosquitoes into the static air repellency chamber. […] One end of the spatial chamber contained a treated filter paper, whereas the other (untreated) end of the spatial chamber was not treated with compound. Controls contained filter papers treated with acetone, the solvent used to make the 0.5% solutions. Each end of the repellency chamber was secured with a 100-mm Petri dish using celluloid tape. After securing the petri dishes with corresponding treated or untreated filter papers to the spatial chamber, mosquitoes were anesthetized with carbon dioxide, and approximately 20 female mosquitoes were placed into each repellency chamber for one replicate. The opening of the spatial repellency chamber was secured with celluloid tape to prevent their escape. Chambers were oriented in opposite directions from the previous replicate to account for any directional effect. Four replicates were performed for data analysis for both the control and treatment groups.
Data for spatial repellency, the percentage repellency, is reported at each of the respective time points in the figures and tables mentioned below. The percentage spatial repellency is the examination of the distribution of mosquitoes and is calculated using the following equation: […]

[1] = 0.25 h, filter paper, 1 mL of 0.5% solution in acetone, air-dried 15 min, 15 min after introduction, read-out: Short-term Percentage repellency 15 min
[2] = 1.5 h, filter paper, 1 mL of 0.5% solution in acetone, air-dried 15 min, 90 min, read-out: Short-term Percentage repellency 90 min
[3] = 2.5 h, filter paper, 1 mL of 0.5% solution in acetone, air-dried 15 min, 150 min, read-out: Short-term Percentage repellency 150 min

| SMILES | pest or weed control at 0.5 % [1] [%] | pest or weed control at 0.5 % [2] [%] | pest or weed control at 0.5 % [3] [%] | pest or weed control at 0.5 % (0.25 h, read-out: Short-term Percentage repellency 15 min) [%] | Short-term percentage repellency 150 min at 1/5 the concentration (0.1% (1/5 of 0.5%), 150 minutes, FIG. 6) | Short-term repellency at low concentration, in words (FIG. 6) |
| --- | --- | --- | --- | --- | --- | --- |
| CC(C)CC(=O)OC1CC(C)CCC1C(C)C (stereo not shown) [Compound 2256, menthyl isovalerate] | 37.5 | 42.5 | 27.5 | – | – | – |
| CC(C)=CCCC(C)CCOC(=O)CC(F)(F)F (stereo not shown) [Compound 2235, citronellyl 3,3,3-trifluoropropanoate] | 12.5 | 62.5 | 77.5 | – | – | – |
| Cc1cc(OC(=O)C(C)C)c(C(C)C)cc1Cl [Compound 1144B, chlorothymyl isobutyrate] | 40 | 77.5 | 87.5 | – | – | – |
| CC(C)=CCCC(C)CCOC(=O)c1ccccc1 (stereo not shown) [Compound 2189, citronellyl benzoate] | 6.5 | 17.5 | 27.5 | – | – | – |
| Cc1cc(OC(=O)C2CC2)c(C(C)C)cc1[N+](=O)[O-] [Compound 1066B, 4-nitrothymyl cyclopropanecarboxylate] | 37.5 | 57.5 | 70 | – | – | – |
| Cc1ccc(C(C)C)c(OC(=O)C(F)F)c1 [Compound 2194, thymyl difluoroacetate] | – | – | – | 20 | – | – |
| CC(C)=CCCC(C)CCOC(=O)C1CCC1 (stereo not shown) [Citronellyl cyclobutanecarboxylate] | – | – | – | – | approximately 90% | significant levels of repellency |
| CC(C)=CCCC(C)CC(=O)OCC1CCC1 (stereo not shown) [Compound 2026, cyclobutylmethyl citronellate] | 25 | 37.5 | 25 | – | – | – |
| CC1=CCC(C(C)(C)OC(=O)CC(C)C)CC1 (stereo not drawn) [Compound 2257, alpha-terpinyl isovalerate] | 10 | 55 | 65 | – | – | – |
| O=C(OC/C=C/c1ccccc1)C1CC1 [Compound 2038, cinnamyl cyclopropanecarboxylate] | 40 | 57.5 | 60 | – | – | – |
| CC(C)=CCCC(C)CCOC(=O)C(C)(C)F (stereo not shown) [Compound 2208, citronellyl 2-fluoroisobutyrate] | 37.5 | 75 | 77.5 | – | – | – |
| CC(C)=CCCC(C)CCOC(=O)CC1CC1 (stereo not shown) [Compound 2229, citronellyl cyclopropylacetate] | – | – | – | – | – | significant levels of repellency |
| CC(C)=CCCC(C)CCOC(=O)CC#N (stereo not shown) [Compound 2198, citronellyl cyanoacetate] | 37.5 | 32.5 | 40 | – | – | – |
| CC(C)=CCCC(C)CCOC(=O)Cc1cccs1 (stereo not shown) [Compound 2244, citronellyl thiophen-2-ylacetate] | 32.5 | 45 | 55 | – | – | – |
| Cc1ccc(C(C)C)cc1OC(=O)CC(C)C [Compound 1079C, carvacryl isovalerate] | -10 | 87.5 | 95 | – | – | – |
| CC(C)=CCCC(C)CCOC(=O)c1cccs1 (stereo not shown) [Compound 2180, Citronellyl thiophene-2-carboxylate] | 0 | 37.5 | 45 | – | – | – |
| CC1CCC(C(C)C)C(OC(=O)C2(C)CCC2)C1 (stereo not shown) [Compound 2210, menthyl 1-methylcyclobutanecarboxylate] | -5 | 62.5 | – | – | – | – |
| CC(C)=CCCC(C)CCOC(=O)C(C)(F)F (stereo not shown) [Compound 2232, citronellyl 2,2-difluoropropanoate] | 50 | 82.5 | 82.5 | – | – | – |

| SMILES | pest or weed control at 0.5 % [1] [%] | pest or weed control at 0.5 % [2] [%] | pest or weed control at 0.5 % [3] [%] | pest or weed control at 0.5 % (0.25 h, read-out: Short-term Percentage repellency 15 min) [%] | Short-term percentage repellency 150 min at 1/5 the concentration (0.1% (1/5 of 0.5%), 150 minutes, FIG. 6) | Short-term repellency at low concentration, in words (FIG. 6) |
| --- | --- | --- | --- | --- | --- | --- |
| CC(=O)OCCOC(=O)C=Cc1ccccc1 [Compound 1105, 2-acetoxyethyl cinnamate] | 30 | 15 | 10 | – | – | – |
| CC(C)CC(=O)OCC1=CCC2CC1C2(C)C (stereo not shown) [Compound 2258, myrteryl isovalerate] | 35 | 85 | 87.5 | – | – | – |
| CC1CCC(C(C)C)C(OC(=O)Cc2cccs2)C1 (stereo not shown) [Compound 2245, menthyl thiophen-2-ylacetate] | -35 | 35 | 57.5 | – | – | – |
| CC(C)=CCCC(C)CCOC=O (stereo not shown) [Compound 1089, citronellyl formate] | 77.5 | 92.5 | 90 | – | – | – |
| C=CC(C)(CCC=C(C)C)OC(=O)CC(C)C (stereo not shown) [Compound 2152, linalyl isovalerate] | 15 | 82.5 | 92.5 | – | – | – |
| CC(C)=CCCC(C)CC(=O)OC1COC1 (stereo not shown) [Compound 3071, 3-oxetanyl citronellate] | 2.5 | 37.5 | 40 | – | – | – |
| CC(C)=CCC/C(C)=C\COC(=O)CC(C)C [Compound 2255B, neryl isovalerate] | 7.5 | 75 | 80 | – | – | – |
| C=C(C)CCOC(=O)CC(C)CCC=C(C)C (stereo not shown) [Compound 2168, isoprenyl citronellate] | 27.5 | 62.5 | 72.5 | – | – | – |
| Cc1cc(OC(=O)C2CC2)c(C(C)C)cc1Br [Compound 1075B, 4-bromothymyl cyclopropanecarboxylate] | 47.5 | 32.5 | 30 | – | – | – |
| CC(C)=CCCC(C)CC(=O)OCCO (stereo not shown) [Compound 1052, 2-hydroxyethyl citronellate] | 77.5 | 92.5 | 82.5 | – | – | – |
| C#CC(C)(C)OC(=O)CC(C)CCC=C(C)C (stereo not shown) [Compound 2171, 1,1-dimethylpropargyl citronellate] | 37.5 | 67.5 | 62.5 | – | – | – |
| C=CCc1ccc(OC(=O)CC(C)C)c(OC)c1 [Compound 1076A, eugenyl isovalerate] | 17.5 | – | – | – | – | – |
| CC(C)=CCC/C(C)=C/COC(=O)CC(C)C [Compound 2255A, geranyl isovalerate] | 35 | 60 | 52.5 | – | – | – |
| CC(C)=CCCC(C)CCOC(=O)C=C(C)C (stereo not shown) [Compound 2105, citronellyl 3,3-dimethylacrylate] | 45 | 75 | 65 | – | – | – |
| CCCCCCC(=O)OCCC(C)CCC=C(C)C (stereo not shown) [Compound 2203, citronellyl hexanecarboxylate] | 0 | 10 | 20 | – | – | – |
| CC(C)=CCCC(C)CC(=O)OCC1(C)COC1 (stereo not shown) [Compound 3070, (3-methyloxetan-3-yl) methyl citronellate] | 15 | 42.5 | 32.5 | – | – | – |
| CC(C)=CCCC(C)CCOC(=O)C1CC(F)(F)C1 (stereo not shown) [Compound 3069, citronellyl 3,3-difluorocyclobutanecarboxylate] | 2.5 | 20 | 27.5 | – | – | – |
